{"source": "patent US20130011376A1", "about": "“Methods for Enhancing Natural Killer Cell Proliferation and Activity” (GAMIDA CELL LTD., priority 2009, published 2013)", "type_in_all_cases": "cell-based, human", "key": {"[1]": {"system": "monocyte (CD14+) and granulocyte (CD15+) cells", "test": "Contaminating monocytes and granulocytes in NK cell cultures (FACS)", "conditions": "14 days culture", "procedure": "For depletion procedure, total nuclear cells from umbilical cord blood (CB), bone marrow (BM) or peripheral blood (PB) cells were layered on a Ficoll-Hypaque gradient (1.077 g/mL; Sigma), and centrifuged at 800×g for 30 minutes for separation of the mononuclear cells. The cells in the interface layer were collected and washed three times in phosphate-buffered saline (PBS) (Biological Industries, Israel) containing 0.5% HSA. Optionally, cells are not separated on the Ficoll-Hypaque gradient but washed three times in phosphate-buffered saline (PBS) (Biological Industries) containing 0.5% HSA (“total mononuclear fraction”). CD3 cells were depleted using the CD3 cell isolation kit (Miltenyi Biotec Bergisch, Gladbach, Germany) and the entire CD3 negative cell fraction was cultured. […] After negative depletion the cells were counted and characterized by FACS analysis.\n3. […] To estimate number of cells in culture, cell samples were counted following staining with trypan blue. […]\nMethods for expansion of NK cells in culture, for use in the clinical setting, must be somewhat specific for the NK cell population, lest contaminating non-NK cells also proliferate due to cell culture conditions. The effect of nicotinamide on non-NK cells was evaluated by monitoring monocyte and granulocyte populations in NK cell cultures exposed to 2.5, 5 and 7.5 mM nicotinamide."}, "[2]": {"system": "peripheral blood NK (T-cell depleted) cells", "test": "Expansion of CD3+ or CD3+/CD19+ depleted peripheral blood NK cells in culture bags", "procedure": "For depletion procedure, total nuclear cells from umbilical cord blood (CB), bone marrow (BM) or peripheral blood (PB) cells were layered on a Ficoll-Hypaque gradient (1.077 g/mL; Sigma), and centrifuged at 800×g for 30 minutes for separation of the mononuclear cells. The cells in the interface layer were collected and washed three times in phosphate-buffered saline (PBS) (Biological Industries, Israel) containing 0.5% HSA. Optionally, cells are not separated on the Ficoll-Hypaque gradient but washed three times in phosphate-buffered saline (PBS) (Biological Industries) containing 0.5% HSA (“total mononuclear fraction”). CD3 cells were depleted using the CD3 cell isolation kit (Miltenyi Biotec Bergisch, Gladbach, Germany) and the entire CD3 negative cell fraction was cultured. Optionally, CD19 cells were also depleted using the CD19 cell isolation kit (Miltenyi Biotec Bergisch, Gladbach, Germany) and the CD3/CD19 negative (CD3/CD19 depleted) cell fraction was cultured. Optionally, RosetteSep Human CD3+ Cell Depletion Cocktail (Stem Cell Technologies, RosestteSep, Cat. No. 15661)] was used for CD3 depletion and the entire CD3 negative cell fraction was cultured. After negative depletion the cells were counted and characterized by FACS analysis.\n3. CD3+ depleted, or CD3+/CD19+ depleted mononuclear cell fraction from PB, BM and CB were cultured in culture bags, T-Flasks or 24 well plates at a concentration of 1−1000×10^4 cells/ml in MEMα/10% FCS or CellGro SCGM (Cell Genix)/5% Human Serum/LiforCell® FBS Replacement (Lifeblood Products) containing the following human recombinant cytokines: interleukin-2 (IL-2) or and interleukin-15 (IL-15), with or without FLT-3 or SCF or FLT3 and SCF (5-50 ng/ml) (Perpo Tech, Inc., Rocky Hill, N.J., USA), all combinations, with or without nicotinamide and incubated at 37° C. in a humidified atmosphere of 5% CO2 in air. The cultures were topped weekly or twice a week with the same volume of fresh medium containing growth factors with or without nicotinamide. Cultures were later supplemented once or several times a week with IL-2 and or IL-2 and IL-15. To estimate number of cells in culture, cell samples were counted following staining with trypan blue. At various time points, samples are taken to FACS analysis to assay the relative fractions of NK cells, CD56+CD3−, CD56+CD3+, CD34+CD56+, CD56+CD16+ and/or CD56+ NKG2A cells.\nIn order to calculate the number of NK cells on day 0, the total number of cells seeded on day 0 was multiplied by the percent of CD56+/CD3− cells measured by the FACS on day 0.\nTo determine total number of cells on day 7, 14 and 21, the cell count/ml was multiplied by the volume of the culture medium. In order to determine the number of NK cells in culture, the total number of cells in culture was multiplied by the percent of CD56+/CD3− cells measured with the FACS on days 7, 14 or 21. To measure fold expansion, total number of NK cells on days 7, 14 and 21 was divided by total number of NK cells seeded in culture on day-0."}, "[3]": {"system": "peripheral blood CD56+ NK cells", "test": "CXCR4 and CD62L expression on NK cells co-cultured with irradiated mononuclear cells", "conditions": "co-culture with irradiated mononuclear cells, nicotinamide 2.5 and 5 mM", "from_the_text": "NK cell cells from total mononuclear cell fraction, purified CD56+ or CD56+CD3− cells from total nuclear or mononuclear cells or from the fraction depleted from CD34+ or CD133+ cells, or CD3+ depleted, or CD3+/CD19+ depleted mononuclear cell fraction from PB, BM and CB can be cultured with irradiated stroma. For the preparation of irradiated stroma (feeder cells), mononuclear cells were irradiated with 3000 rad. After CD56 or CD56+CD3− selection or CD3 depletion the cells were counted and characterized by FACS analysis as described hereinabove. Cells were cultured as described hereinabove, with and without nicotinamide, with and without irradiated stroma at a concentration of irradiated cells of 20×10^5 cells/ml.\nThe cells were washed with a PBS solution containing 1% BSA, and stained (at 4° C. for 30 min) with fluorescein isothiocyanate (FITC)- or phycoerythrin (PE)-conjugated antibodies or allophycocyanin (APC). The cells were then washed in the above buffer and analyzed using a FACScalibur® flow cytometer (Becton Dickinson, San Jose, Calif., USA). […] Emission of 10^4 cells was measured using logarithmic amplification, and analyzed using the CellQuest software (Becton Dickinson). Cells stained with FITC, PE and APC-conjugated isotype control antibodies were used to determine background fluorescence. […]"}}}
{"smiles": "NC(=O)c1cccnc1", "note": "[nicotinamide]", "values": [{"measurement": "suppression of CD14 proliferation", "setting": "[1]", "result": "greater than 50%"}, {"measurement": "suppression of granulocyte proliferation", "setting": "[1]", "result": "greater than 50%"}, {"measurement": "NK expansion relative to control cultures without nicotinamide", "setting": "[2]; 2.5 mM and 5 mM nicotinamide, after 14 and 21 days, IL-2 or IL-2+IL-15", "result": "significantly higher"}, {"measurement": "CD56+CD3- NK cell proliferation", "setting": "[2]; 2.5 mM and 5 mM, 21 days, seeding 2-, 5-, and 10x10^5 cells", "result": "profound enhancement"}, {"measurement": "NK (CD56+CD3-) cells among cells in culture", "setting": "[2]; 2-3 weeks in culture with nicotinamide, seeded 2-10% NK cells", "result": "more than 90%"}, {"measurement": "non-NK cell fraction vs control cultures", "setting": "[2]; 2.5 and 5 mM nicotinamide, 21 days post seeding", "result": "smaller"}, {"measurement": "NK cell proliferation from day 14 to day 21", "setting": "[2]; grown with nicotinamide", "result": "continue to proliferate"}, {"measurement": "expression of surface marker CD62L", "setting": "[3]", "result": "marked increase"}, {"measurement": "expression of surface marker CXCR4", "setting": "[3]", "result": "marked increase"}]}
